SMILES strings stand for the structures. Bounds are passed on as bounds.

In ChEMBL document CHEMBL1143609, “Conformationally restricted analogues of psorospermin: design, synthesis, and bioactivity of natural-product-related bisfuranoxanthones” (J Med Chem, 2005) one finds IC50 data, which are given here for nine compounds.

Type in all cases: functional, cell-based
Common to all, as to details: Homo sapiens

The subject of one test is HeLa. Kind of test: Inhibitory concentration against HeLa cell line.
The subject of the next test is NCI-H522. Kind of test: Inhibitory concentration against H522 cell line.
Another test deals with HepG2. Kind of test: Inhibitory concentration against HepG2 cell line.
The next test relates to COLO 320. The experiment in a line: Inhibitory concentration against COLO 320 cell line.
The next test has as its system HT-29. The experiment in a line: Inhibitory concentration against HT-29 cell line.
In a further test the test system is MIA PaCa-2. Kind of test: Inhibitory concentration against MIA PaCa cell line.

A word on the IC50: it is the concentration that gives 50% inhibition. For `COc1cccc2c(=O)c3c(O)c4c(cc3oc12)O[C@@H]1[C@H]4OC[C@]1(C)O`, the half-inhibitory concentration (IC50) is 23.5 µM in the test with HeLa; above 30 µM in the test on NCI-H522; above 30 µM with HepG2; above 30 µM with COLO 320; above 30 µM in the test with HT-29; above 30 µM in the test on MIA PaCa-2.

In the case of `COc1cccc2c(=O)c3c(O)cc4c(c3oc12)[C@@H]1OC[C@]2(CO2)[C@@H]1O4`, the IC50 in the test with HeLa is 32.5 µM; in the test with NCI-H522, 19.4 µM; in the test with HepG2, 13.1 µM; in the test with COLO 320 it was 9.19 µM; in the test with HT-29, above 30 µM; in the test on MIA PaCa-2 it was 10.9 µM.

Take `COc1cccc2c(=O)c3c(O)cc4c(c3oc12)C[C@H]([C@](C)(O)CO)O4`: the concentration for half-maximal inhibition (IC50) with HeLa, with NCI-H522, in the test with HepG2, in the test with COLO 320, in the test with HT-29 and in the test with MIA PaCa-2 was above 30 µM in each case.

Take `COc1cccc2c(=O)c3c(O)cc4c(c3oc12)C[C@H]([C@@](C)(O)CO)O4`: the half-maximal inhibitory concentration (IC50) with HeLa was above 30 µM; in the test with NCI-H522, 28.4 µM; in the test on HepG2, above 30 µM; in the test with COLO 320, 19.2 µM; in the test with HT-29 it was above 30 µM; with MIA PaCa-2, 23.8 µM.

In the case of `COc1cccc2c(=O)c3c(O)cc4c(c3oc12)[C@@H]1OC[C@](O)(CCl)[C@@H]1O4`, the IC50 is 7.5 µM in the test with HeLa; 7.14 µM with NCI-H522; above 30 µM in the test with HepG2; 0.9 µM with COLO 320; 7.13 µM in the test on HT-29; 3.76 µM in the test on MIA PaCa-2.

For `COc1cc2c(c3oc4c(O)cccc4c(=O)c13)C[C@H]([C@@]1(C)CO1)O2` [PSOROSPERMIN], the 50% inhibitory concentration (IC50) was determined as 0.71 µM with HeLa; 0.45 µM with NCI-H522; 0.38 µM in the test on HepG2; 0.069 µM in the test with COLO 320; 0.64 µM in the test on HT-29; 0.21 µM in the test with MIA PaCa-2.

For `COc1cccc2c(=O)c3c(O)c4c(cc3oc12)O[C@@H]1[C@H]4OC[C@@]1(C)O`, the half-maximal inhibitory concentration (IC50) is 23.5 µM with HeLa; above 30 µM in the test on NCI-H522; above 30 µM in the test on HepG2; above 30 µM in the test on COLO 320; above 30 µM in the test with HT-29; above 30 µM with MIA PaCa-2.

Turning to `C=C1CO[C@H]2c3c(cc(O)c4c(=O)c5cccc(OC)c5oc34)O[C@@H]12`, the IC50 with HeLa, in the test with NCI-H522, in the test with HepG2, in the test with COLO 320, in the test on HT-29 and in the test on MIA PaCa-2 was above 30 µM in each case.

Turning to `COc1cccc2c(=O)c3c(O)cc4c(c3oc12)[C@@H]1OC[C@](O)(CO)[C@@H]1O4`, the IC50 is 19 µM in the test with HeLa; 20 µM in the test on NCI-H522; above 30 µM in the test on HepG2; 12.3 µM in the test with COLO 320; 36.7 µM with HT-29; 12.3 µM in the test on MIA PaCa-2.
